≈ marks a conversion by molar mass, not a printed value.
Experiments:
Assay type in all cases: functional
Staphylococcus aureus = experiment: Antimicrobial activity against Staphylococcus aureus ATCC 25923 after 18 hrs by broth microdilution test; details: ATCC 25923, 18 h
[1] = system: Staphylococcus epidermidis; experiment: Antimicrobial activity against Staphylococcus epidermidis ATCC 12228 after 18 hrs by broth microdilution test; details: ATCC 12228, 18 h
Candida albicans = experiment: Antimicrobial activity against Candida albicans ATCC 1600 after 48 hrs by broth microdilution test; details: ATCC 1600, 48 h

MIC (Staphylococcus aureus) | MIC [1] | MIC (Candida albicans) | SMILES
> 130 µM | > 130 µM | > 130 µM | COc1cc([C@@H]2c3cc(OC)c(O)c(OC)c3C=C(C)[C@H]2C)cc(OC)c1O (relative stereo) [SACIDUMLIGNAN B]
47 µM (≈ 12.5 µg/mL) | 23 µM (≈ 6.13 µg/mL) | – | C=CCc1ccc(O)c(-c2cc(CC=C)ccc2O)c1 [MAGNOLOL]
– | – | 14 µM (≈ 6.05 µg/mL) | COC(=O)C1=CC[C@@]23CC[C@@H]([C@@](C)(/C=C/C=C(\C)C(=O)O)OC2=O)[C@@]3(OC(C)=O)CC1 [PSEUDOLARIC ACID B]
130 µM (≈ 50 µg/mL) | 65 µM (≈ 25 µg/mL) | > 130 µM | COc1cc(-c2c(C)c(C)cc3c(OC)c(O)c(OC)cc23)cc(OC)c1O [SACIDUMLIGNAN A]

Reference: ChEMBL document CHEMBL1142582, “Lignans and their degraded derivatives from Sarcostemma acidum” (2005)
